Results from ChEMBL document CHEMBL5634092, “Design, synthesis, and biological evaluation of novel HDAC/CD13 dual inhibitors for the treatment of cancer” (Eur J Med Chem, 2023).

Experiments:
Histone deacetylase 3 = Histone deacetylase 3 (Homo sapiens, UniProt O15379); test: Inhibition of human HDAC3 using Boc-Lys (acetyl)-AMC as substrate incubated for 1 hr followed by substrate addition and further incubated for 2 hrs by fluorescence assay
Histone deacetylase 5 = Histone deacetylase 5 (Homo sapiens, UniProt Q9UQL6); test: Inhibition of human HDAC5 using Boc-Lys (tri-fluoroacetyl)-AMC as substrate incubated for 1 hr followed by substrate addition and further incubated for 2 hrs by fluorescence assay
Histone deacetylase 5, sequence (Q9UQL6 whole entry): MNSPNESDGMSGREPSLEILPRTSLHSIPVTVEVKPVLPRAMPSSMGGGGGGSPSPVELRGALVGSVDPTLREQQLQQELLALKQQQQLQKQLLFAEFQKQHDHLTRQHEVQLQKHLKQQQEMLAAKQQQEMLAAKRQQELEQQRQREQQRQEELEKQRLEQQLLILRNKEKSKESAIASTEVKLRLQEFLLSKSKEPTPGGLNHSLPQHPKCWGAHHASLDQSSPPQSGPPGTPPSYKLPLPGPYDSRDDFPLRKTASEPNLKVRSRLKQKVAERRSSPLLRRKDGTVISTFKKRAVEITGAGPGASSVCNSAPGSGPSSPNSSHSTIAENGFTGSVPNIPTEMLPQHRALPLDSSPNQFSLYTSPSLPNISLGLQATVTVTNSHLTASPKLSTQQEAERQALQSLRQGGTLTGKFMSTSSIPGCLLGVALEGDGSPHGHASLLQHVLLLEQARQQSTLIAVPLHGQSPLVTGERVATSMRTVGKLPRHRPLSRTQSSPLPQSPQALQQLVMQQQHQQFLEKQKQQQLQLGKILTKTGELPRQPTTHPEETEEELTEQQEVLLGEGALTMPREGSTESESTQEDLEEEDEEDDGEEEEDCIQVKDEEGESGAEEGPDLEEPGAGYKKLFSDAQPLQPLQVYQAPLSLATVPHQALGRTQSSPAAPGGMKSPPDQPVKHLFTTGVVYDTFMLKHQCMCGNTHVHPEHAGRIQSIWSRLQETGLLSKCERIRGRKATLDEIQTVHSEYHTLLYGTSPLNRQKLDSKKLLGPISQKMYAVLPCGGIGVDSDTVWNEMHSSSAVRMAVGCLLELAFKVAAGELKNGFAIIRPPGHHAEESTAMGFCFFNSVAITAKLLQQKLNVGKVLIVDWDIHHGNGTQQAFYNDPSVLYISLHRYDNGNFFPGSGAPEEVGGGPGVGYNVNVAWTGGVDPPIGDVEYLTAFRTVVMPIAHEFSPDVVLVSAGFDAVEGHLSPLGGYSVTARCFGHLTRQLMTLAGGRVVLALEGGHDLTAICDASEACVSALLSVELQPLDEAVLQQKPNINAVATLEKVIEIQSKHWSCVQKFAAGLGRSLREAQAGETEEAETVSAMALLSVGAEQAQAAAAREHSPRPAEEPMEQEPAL

[1] = target: T1, Protein deacetylase HDAC6 (Homo sapiens, UniProt Q9UBN7); test: Inhibition of human HDAC6 using Boc-Lys (acetyl)-AMC as substrate incubated for 1 hr followed by substrate addition and further incubated for 2 hrs by fluorescence assay
T1 sequence (Q9UBN7 whole entry): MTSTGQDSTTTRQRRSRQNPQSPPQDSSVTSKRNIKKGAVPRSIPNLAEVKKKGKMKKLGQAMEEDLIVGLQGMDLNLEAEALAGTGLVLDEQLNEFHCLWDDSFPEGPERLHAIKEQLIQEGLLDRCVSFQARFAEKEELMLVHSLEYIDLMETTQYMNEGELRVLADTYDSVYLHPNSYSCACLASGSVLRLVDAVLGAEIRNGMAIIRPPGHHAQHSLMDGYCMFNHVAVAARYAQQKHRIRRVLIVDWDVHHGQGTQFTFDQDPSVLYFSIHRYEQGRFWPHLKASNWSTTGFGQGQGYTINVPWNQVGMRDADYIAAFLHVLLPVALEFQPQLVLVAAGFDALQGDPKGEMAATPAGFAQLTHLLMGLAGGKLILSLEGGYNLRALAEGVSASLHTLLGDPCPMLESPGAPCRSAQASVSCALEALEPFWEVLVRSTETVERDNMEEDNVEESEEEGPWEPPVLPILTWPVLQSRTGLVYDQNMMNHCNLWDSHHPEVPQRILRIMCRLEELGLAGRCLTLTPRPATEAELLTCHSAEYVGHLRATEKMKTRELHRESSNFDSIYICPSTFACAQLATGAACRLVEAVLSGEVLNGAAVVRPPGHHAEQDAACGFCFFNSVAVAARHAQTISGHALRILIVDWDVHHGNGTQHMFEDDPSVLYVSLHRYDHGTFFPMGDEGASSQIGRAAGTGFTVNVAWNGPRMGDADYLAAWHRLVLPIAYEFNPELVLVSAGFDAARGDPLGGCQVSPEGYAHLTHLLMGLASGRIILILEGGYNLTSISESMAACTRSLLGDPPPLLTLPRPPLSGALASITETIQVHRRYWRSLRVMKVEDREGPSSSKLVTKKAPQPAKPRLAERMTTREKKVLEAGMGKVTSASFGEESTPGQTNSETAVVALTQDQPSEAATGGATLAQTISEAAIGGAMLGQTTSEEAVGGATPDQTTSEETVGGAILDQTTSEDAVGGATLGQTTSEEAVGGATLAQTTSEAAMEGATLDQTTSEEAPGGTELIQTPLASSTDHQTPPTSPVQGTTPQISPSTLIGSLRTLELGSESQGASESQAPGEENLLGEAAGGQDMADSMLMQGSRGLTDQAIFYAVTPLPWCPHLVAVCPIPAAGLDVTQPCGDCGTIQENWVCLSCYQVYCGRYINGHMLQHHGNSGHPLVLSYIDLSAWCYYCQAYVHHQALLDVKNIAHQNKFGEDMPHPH

Histone deacetylase 7 = target: T2, Histone deacetylase 7 (Homo sapiens, UniProt Q8WUI4); test: Inhibition of human HDAC7 using Boc-Lys (tri-fluoroacetyl)-AMC as substrate incubated for 1 hr followed by substrate addition and further incubated for 2 hrs by fluorescence assay
T2 sequence (Q8WUI4 whole entry): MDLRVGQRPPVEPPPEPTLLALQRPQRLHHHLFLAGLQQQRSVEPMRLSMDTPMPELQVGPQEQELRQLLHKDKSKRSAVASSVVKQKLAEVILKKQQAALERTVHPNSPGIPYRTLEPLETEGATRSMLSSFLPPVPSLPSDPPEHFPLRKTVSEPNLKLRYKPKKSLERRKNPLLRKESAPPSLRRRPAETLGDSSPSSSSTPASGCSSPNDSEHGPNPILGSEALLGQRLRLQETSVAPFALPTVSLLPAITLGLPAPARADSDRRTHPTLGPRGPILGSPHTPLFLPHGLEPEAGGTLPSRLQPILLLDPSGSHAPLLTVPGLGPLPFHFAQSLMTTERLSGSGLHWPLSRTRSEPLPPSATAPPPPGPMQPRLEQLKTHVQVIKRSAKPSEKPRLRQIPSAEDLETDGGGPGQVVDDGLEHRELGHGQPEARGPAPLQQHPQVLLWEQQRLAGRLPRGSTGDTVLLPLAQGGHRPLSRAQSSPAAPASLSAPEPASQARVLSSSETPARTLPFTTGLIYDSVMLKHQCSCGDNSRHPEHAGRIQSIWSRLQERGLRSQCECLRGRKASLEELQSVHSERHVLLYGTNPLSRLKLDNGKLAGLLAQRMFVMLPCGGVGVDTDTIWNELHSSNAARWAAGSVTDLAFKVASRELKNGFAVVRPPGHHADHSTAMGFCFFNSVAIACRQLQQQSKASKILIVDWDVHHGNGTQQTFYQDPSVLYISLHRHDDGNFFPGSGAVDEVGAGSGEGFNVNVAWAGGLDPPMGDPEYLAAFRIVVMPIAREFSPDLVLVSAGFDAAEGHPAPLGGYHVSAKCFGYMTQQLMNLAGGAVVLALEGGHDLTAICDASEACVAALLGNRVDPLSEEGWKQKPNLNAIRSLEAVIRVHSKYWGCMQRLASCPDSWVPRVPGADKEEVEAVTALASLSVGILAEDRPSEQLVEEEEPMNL

Histone deacetylase 8 = target: T3, Histone deacetylase 8 (Homo sapiens, UniProt Q9BY41); test: Inhibition of human HDAC8 using Boc-Lys (tri-fluoroacetyl)-AMC as substrate incubated for 1 hr followed by substrate addition and further incubated for 2 hrs by fluorescence assay
T3 sequence (Q9BY41 whole entry): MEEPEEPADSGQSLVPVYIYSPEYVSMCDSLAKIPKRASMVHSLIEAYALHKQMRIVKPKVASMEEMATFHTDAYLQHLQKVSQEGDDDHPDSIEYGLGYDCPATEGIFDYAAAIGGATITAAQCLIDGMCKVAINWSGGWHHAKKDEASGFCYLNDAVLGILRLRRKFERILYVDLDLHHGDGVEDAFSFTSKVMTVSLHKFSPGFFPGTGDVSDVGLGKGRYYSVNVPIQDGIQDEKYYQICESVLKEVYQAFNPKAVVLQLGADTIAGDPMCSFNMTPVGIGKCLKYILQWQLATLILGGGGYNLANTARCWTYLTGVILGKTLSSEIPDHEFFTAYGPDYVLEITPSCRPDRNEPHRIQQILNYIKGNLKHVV

Histone deacetylase 9 = Histone deacetylase 9 (Homo sapiens, UniProt Q9UKV0); test: Inhibition of human HDAC9 using Boc-Lys (tri-fluoroacetyl)-AMC as substrate incubated for 1 hr followed by substrate addition and further incubated for 2 hrs by fluorescence assay
Histone deacetylase 9, sequence (Q9UKV0 whole entry): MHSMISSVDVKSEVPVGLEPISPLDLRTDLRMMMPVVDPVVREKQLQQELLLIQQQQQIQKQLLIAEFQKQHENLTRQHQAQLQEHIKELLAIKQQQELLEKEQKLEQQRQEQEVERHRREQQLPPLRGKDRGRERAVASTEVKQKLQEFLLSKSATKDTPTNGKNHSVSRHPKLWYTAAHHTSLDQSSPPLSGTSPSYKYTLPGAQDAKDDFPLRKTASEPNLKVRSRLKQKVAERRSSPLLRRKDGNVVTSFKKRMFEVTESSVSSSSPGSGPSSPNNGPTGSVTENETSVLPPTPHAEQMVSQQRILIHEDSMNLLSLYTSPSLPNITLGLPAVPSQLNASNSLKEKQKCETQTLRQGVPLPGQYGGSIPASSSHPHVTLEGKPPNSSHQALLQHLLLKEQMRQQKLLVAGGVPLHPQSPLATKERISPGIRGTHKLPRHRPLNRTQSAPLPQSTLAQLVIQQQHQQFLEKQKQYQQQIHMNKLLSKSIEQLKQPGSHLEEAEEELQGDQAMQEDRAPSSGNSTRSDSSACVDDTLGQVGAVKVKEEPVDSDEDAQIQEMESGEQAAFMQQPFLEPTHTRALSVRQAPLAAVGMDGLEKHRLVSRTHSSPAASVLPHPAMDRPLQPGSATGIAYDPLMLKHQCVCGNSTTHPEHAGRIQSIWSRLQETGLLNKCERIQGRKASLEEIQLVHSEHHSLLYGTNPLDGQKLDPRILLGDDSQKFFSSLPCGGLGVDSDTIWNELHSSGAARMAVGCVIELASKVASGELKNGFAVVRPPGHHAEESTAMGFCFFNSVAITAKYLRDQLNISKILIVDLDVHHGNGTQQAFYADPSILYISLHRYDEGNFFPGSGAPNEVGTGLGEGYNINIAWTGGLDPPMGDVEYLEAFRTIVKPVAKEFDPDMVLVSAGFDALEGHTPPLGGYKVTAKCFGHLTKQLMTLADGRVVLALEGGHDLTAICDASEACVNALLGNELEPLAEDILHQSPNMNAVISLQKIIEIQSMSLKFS

[2] = Stability of compound in human plasma at […] measured after 24 hrs by HPLC analysis; assay type: ADME, cell-free
[3] = Stability of compound in artificial intestinal juice at 0.4 mg/mL measured after 24 hrs by HPLC analysis; assay type: ADME; settings: simulated gi fluid

Histone deacetylase 3, sequence (O15379 whole entry): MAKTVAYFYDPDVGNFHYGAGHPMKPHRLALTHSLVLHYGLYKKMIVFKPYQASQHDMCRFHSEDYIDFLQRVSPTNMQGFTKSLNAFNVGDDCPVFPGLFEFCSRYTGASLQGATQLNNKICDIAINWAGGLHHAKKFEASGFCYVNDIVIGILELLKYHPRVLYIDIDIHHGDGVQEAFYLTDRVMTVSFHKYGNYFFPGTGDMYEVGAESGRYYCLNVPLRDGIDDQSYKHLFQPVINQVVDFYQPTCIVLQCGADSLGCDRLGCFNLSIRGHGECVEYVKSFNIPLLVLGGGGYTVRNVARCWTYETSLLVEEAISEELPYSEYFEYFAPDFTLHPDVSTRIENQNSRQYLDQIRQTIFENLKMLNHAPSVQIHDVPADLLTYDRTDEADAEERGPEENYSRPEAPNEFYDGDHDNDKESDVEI

In the case of CCCNNC(=O)c1ccc(CNC(=O)[C@H](CC(C)C)NC(=O)[C@@H](O)[C@H](N)Cc2ccccc2)cc1.Cl, the IC50 (Histone deacetylase 3) is reported as 0.02 µM, the IC50 (Histone deacetylase 5) is reported as > 10 µM and the IC50 [1] is reported as > 10 µM. For the same compound, the IC50 (Histone deacetylase 7) was > 10 µM, the IC50 (Histone deacetylase 8) was 4.65 µM and the IC50 (Histone deacetylase 9) was > 10 µM. The Stability [2] was “Stable” and the Stability [3] was “Stable”.
